Legend:
[1] = test system: mechanical hyperalgesia and thermal hyperalgesia; conditions: pain models in rodents; Brit. J. Pharmacol., 2009, 158, 494-506; cited from earlier work
[2] = test system: capsaicin-induced mechanical and thermal hyperalgesia; conditions: intrathecal injection, Neuropharmacology, 2005, 48, 325; cited from earlier work
[3] = test system: glutamate-induced neuronal injury; conditions: Nature Medicine 2010, 16, 1439-1443; cited from earlier work
[4] = test system: NMDAR-mediated pathological NO release; conditions: Nature Medicine 2010, 16, 1439-1443; cited from earlier work
[5] = test system: learning and memory impairment, behavioral abnormalities; conditions: in vivo; cited from earlier work
[6] = test system: middle cerebral artery occlusion (MCAO) and reperfusion; conditions: Nature Medicine 2010; cited from earlier work
[7] = test system: complete Freund's adjuvant (CFA)-induced muscle hyperalgesia; conditions: intramuscular injection; dose-dependent; Neuroreport, 2005, 16, 485; cited from earlier work
[8] = test system: acute focal cerebral ischemia/reperfusion injury in rats; assay: MCAO focal cerebral ischemia/reperfusion injury: infarct area and neurological defect score; format: in vivo; conditions: tail vein 0.75, 1.5 and 3 mg/kg 1 h after reperfusion, 48 h, FIG. 7
Source text: Cerebral ischemia injury was induced by middle cerebral artery occlusion (MCAO) reperfusion model. […] The neck skin was incised along median line, and neck muscle tissue was bluntly dissected to expose and carefully isolate the common carotid artery (CCA) on the right side. The concomitant vagus nerve was gently peeled and ligated, and inward and superficial external carotid artery (ECA) was cut off; pterygopalatine artery, outward branch artery near skull base along internal carotid artery (ICA), was isolated and ligated. […] At this point, the blood supply to the middle cerebral arteries (MCA) including carotid artery and ramus communicans before Waldeyer's ring were all blocked. The depth of the inserted line was determined based on the mark. Extravascular part of the line was ligated and fixed to prevent the line from slippage. After rightside cerebral ischemia 120 minutes, the line was carefully unplugged and the broken end was ligated to achieve reperfusion after ischemia. Suturing the skin, and the rats were returned to cage and fed carefully. The body temperature of the animals was maintained constantly at 37±0.5° C. during surgery.
The modified Bederson 5-score method was used for evaluation of neurological defect symptoms. Neurological defect symptoms of rats after cerebral ischemia was evaluated by single-blinded method, i.e., test animals were marked by group by the test designers and testers who graded neurological defect symptoms didn't know the animal grouping, after the grading the testers submitted the grading results with various marks to the designers, and the designers unblinded the grouping to obtain scores for each animal in each test group.
The animals were anesthetized with 10% chloral hydrate 3.5 ml/kg, the brains were taken out after beheading, and olfactory bulb, cerebellum and lower brain stem were removed. Blood on the surface of the brain was washed with normal saline and residual water on the surface was absorbed. The brains were placed at −80° C. for 7 min, and once taken out were sliced at the coronal cross planes vertically to the sight plane with 2 mm intervals between the slices. The brain slices were immersed in a water bath (37° C., 90 min) containing 20 g/L TTC dye freshly prepared with 0.2 mol/L pH 7.4˜7.8 PBS, and normal brain tissues were stained crimson while ischemic brain tissues were pale. After the tissues were washed with normal saline, the brain slices were rapidly aligned in a row from front to back in order, and the surface residual water was absorbed to dry surface, then photographed. Statistics of the pictures were carried on using image analysis software, and ischemic area (white area) and total area on the right side were delineated. The percentage of cerebral infarct area was calculated using the following formula.
Neurological deficit symptoms were evaluated 48 h after the cerebral ischemia, then the animals were sacrificed and the brains were taken out, TTC stained, and infarct areas of the stained brain slices were measured.
The rats were under MCAO for 120 min, and 1 h after reperfusion the rats were injected through tail vein with ZL006-06, ZL006-16, ZL006-28, ZL006-30, ZL006-43, ZL006-82 or an equivalent volume of solvent, wherein the doses of each drug were 1.5 mg/kg, and the volume of injected drugs was 0.1 ml/100 g weight. Neurological deficit symptoms were evaluated 48 h after the cerebral ischemia, then the animals were sacrificed and the brains were taken out, TTC stained, and infarct areas of the stained brain slices were measured.

[9] = test system: inflammatory pain in mice (mechanical stimulus)
Protocol: (§1) Meller method was employed. Skin around the […] planta was disinfect with 75% ethanol, and 10 μl Complete Freund's adjuvant (CFA) was injected subcutaneously in planta of right hind limb. The planta was gently pressed with a dry cotton ball after the injection to avoid liquid spill along the pinhole. Mice would usually return to normal within a few minutes. CFA-induced inflammatory pain is a widely used chronic pain model.

[10] = test system: neuropathic pain in mice (thermal radiation stimulus); assay: Neuropathic pain model (SNL), thermal pain threshold
Protocol: Neuropathic pain model was prepared by segmental spinal nerve ligation (SNL). The mice were anesthetized by intraperitoneal injection of 2% chloral hydrate (0.2 mL/10 g), after the loss of righting reflex, the mice were fixed in the prone position. The model was prepared by the method of Kim and Chung: a median skin incision with about 3-5 cm length in L4-S2 level of the mouse back was bluntly dissected, the muscles next to the vertebrae till the sixth lumbar protruding were separated, the L5/L6 joint protruding on the right side was exposed and excised, and L6 processes transverses was partially splitted so that the L4-L6 spinal nerves on the right side were exposed. L5 nerve was gently isolated and tightly ligated with 5-0 silk thread. Then the incision was sutured layer by layer, the skin was disinfected with povidone iodine, and the mice were continued to be raised. Postoperative gait deformity appeared in the animals, and in addition to mild valgus and toes were held together in surgery side hind limb, there was no other abnormal change.
When measuring paw withdrawal threshold (PWT) responding to thermal stimulus, the latency of paw withdrawal response was determined using pain measurement system of plantar thermal stimulus (UGO BASILE, Italy) which was commercially available. The mice were placed in a small plastic chamber located above a glass platform. The temperature of glass platform was controlled at 22° C. Animals' planta were stimulated with infrared radiator. To prevent tissue damage, the stimulated duration was limited within 30 seconds. If the stimulation time overran, the infrared radiator was automatically turned off. The pain threshold is represented by the time from starting stimulation to the foot removing from the glass platform. To ensure the consistency of the experiment, the sites of the animals receiving the thermal stimulus all located in the center of the hind planta.
When the drug was administrated by gavage, the objective compounds milled into a fine powder were suspended with water and sodium carboxymethyl cellulose, wherein the amount of sodium carboxymethyl cellulose was 1%. After the suspension, the objective compounds should be suspended homogeneously in the liquid, and no granular objects would settle or flocculently suspend in the liquid.
SNL surgery was conducted on the mice whose baseline of threshold for 50% paw withdrawal response to mechanical stimulus was determined. […] Latencies of thermal pain responses were measured 0.5, 1, 2, 4, 6, 8, 10, 12 and 24 hours after administration.

[11] = test system: neuropathic pain in mice (mechanical stimulus); assay: Neuropathic pain model (SNL), mechanical pain threshold (von Frey); format: in vivo
[12] = test system: inflammatory pain in mice (thermal radiation stimulus)
Protocol: as §1
Animals' planta were stimulated with infrared radiator.
CFA was injected in the planta of the mice whose latency baseline of thermal pain paw response was determined to induce inflammatory pain. […] Latencies of paw withdraw response to thermal pain were measured 0.5, 1, 4, 8, 10 and 24 hours after administration.

[13] = test system: OGD-injuried neurons (primary cortical neurons); assay: Cell viability assay: LDH release by OGD-injured primary cortical neurons; format: cell-based, mice; conditions: drug concentration 10^−6 M/L; OGD 2 hours, LDH after 8 hours
Outline: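 Day-9 primary cortical neurons were serum-starved overnight, pretreated with compound for 30 min, then held 2 h in glucose-free medium under anaerobic oxygen-glucose deprivation. After 8 h reoxygenation in normal medium, LDH activity in culture medium and freeze-thaw cell lysate supernatant was measured by kit.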

[14] = target: nNOS-PSD-95 coupling (Mus musculus, UniProt Q9Z0J4); conditions: FIG. 1
nNOS-PSD-95 coupling, sequence (Q9Z0J4 whole entry): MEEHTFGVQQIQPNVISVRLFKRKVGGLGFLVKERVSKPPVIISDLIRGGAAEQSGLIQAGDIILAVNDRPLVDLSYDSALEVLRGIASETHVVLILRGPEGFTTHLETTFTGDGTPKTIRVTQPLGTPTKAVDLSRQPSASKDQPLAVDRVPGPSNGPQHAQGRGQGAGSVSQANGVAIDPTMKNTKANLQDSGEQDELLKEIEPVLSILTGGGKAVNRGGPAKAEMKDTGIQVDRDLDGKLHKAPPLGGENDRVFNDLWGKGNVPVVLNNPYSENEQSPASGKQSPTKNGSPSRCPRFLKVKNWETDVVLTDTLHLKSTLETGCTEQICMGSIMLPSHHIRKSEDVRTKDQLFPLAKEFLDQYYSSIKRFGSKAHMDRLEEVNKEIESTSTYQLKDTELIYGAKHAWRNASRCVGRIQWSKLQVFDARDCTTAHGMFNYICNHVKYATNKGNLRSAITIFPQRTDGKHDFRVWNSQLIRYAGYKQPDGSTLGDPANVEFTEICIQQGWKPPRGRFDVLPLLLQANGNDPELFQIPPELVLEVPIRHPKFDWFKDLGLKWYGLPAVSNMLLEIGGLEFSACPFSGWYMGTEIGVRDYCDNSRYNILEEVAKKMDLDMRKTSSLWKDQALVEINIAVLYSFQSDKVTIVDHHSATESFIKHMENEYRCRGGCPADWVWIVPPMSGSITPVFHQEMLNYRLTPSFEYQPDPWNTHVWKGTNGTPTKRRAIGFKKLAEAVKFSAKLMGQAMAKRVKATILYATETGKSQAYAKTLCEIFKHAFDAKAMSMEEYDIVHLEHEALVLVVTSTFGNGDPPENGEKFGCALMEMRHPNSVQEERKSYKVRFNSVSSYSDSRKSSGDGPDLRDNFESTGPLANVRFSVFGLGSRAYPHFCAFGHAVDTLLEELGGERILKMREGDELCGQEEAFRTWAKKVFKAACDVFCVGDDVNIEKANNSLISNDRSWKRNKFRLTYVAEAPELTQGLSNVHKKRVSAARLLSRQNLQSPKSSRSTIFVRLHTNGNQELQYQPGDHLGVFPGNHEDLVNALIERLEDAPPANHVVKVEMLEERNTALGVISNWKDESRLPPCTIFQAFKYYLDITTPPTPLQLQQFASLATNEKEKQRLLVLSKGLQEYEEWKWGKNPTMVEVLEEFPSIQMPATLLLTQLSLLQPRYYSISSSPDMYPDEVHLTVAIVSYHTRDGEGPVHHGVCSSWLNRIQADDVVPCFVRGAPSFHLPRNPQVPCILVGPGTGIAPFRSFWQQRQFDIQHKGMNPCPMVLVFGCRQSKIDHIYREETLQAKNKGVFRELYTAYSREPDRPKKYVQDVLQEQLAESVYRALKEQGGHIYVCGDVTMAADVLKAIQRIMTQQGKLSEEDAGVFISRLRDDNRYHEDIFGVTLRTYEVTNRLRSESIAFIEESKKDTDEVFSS
Protocol: Neonatal mice within 24 h were disinfected successively with benzalkonium bromide solution and 75% ethanol, followed by the disinfection to head skin with povidone-iodine. The head was fixed by clamping the neck skin by left hand, while the skull was cut open with an ophthalmic tweezer by right hand, exposing two cerebral hemispheres. The two pieces of cerebral cortex was placed in Petri dishes containing D-Hank's solution; the meninges was removed. The prepared cerebral cortex was added into a 5 ml small beaker, cut into small pieces of tissue less than 1 mm^3 using ophthalmic scissors and the pieces of tissue were transferred to a 50 ml conical flask. The well-incubated 0.125% Trypsin solution was added into a 20 ml conical flask and mixed thoroughly. After the digestion for 10 min in an incubator (37° C.), the suspension was gently pipetted with a pipette until the absence of tissue pieces. The cell suspension was transferred to a 200-mesh sieve to filter, and the enzyme reaction of the filtrate was terminated by DMEM/F12 (1:1) medium containing 10% FBS. The filtrate was centrifuged (2500 rp, 3 min) and the supernatant was removed. […]

[15] = gavage 50 mg/kg, CFA, mechanical
[16] = 60 and 90 mg/kg groups, at peak time points of efficacy
[17] = gavage, SNL, mechanical stimulus

Oc1c(Cl)cc(Cl)cc1CNc1ccc2[nH]nnc2c1 [IC87201, 2-[(1H-benzotriazole-5-amino)methyl]-4,6-dichlorophenol]
mechanical hyperalgesia and thermal hyperalgesia [1]: significant inhibitory effects

C[C@]12N[C@H](Cc3ccccc31)c1ccccc12 [MK-801]
mechanical allodynia and thermal hyperalgesia [2]: significantly alleviate

O=C(O)c1ccc(NCc2cc(Cl)cc(Cl)c2O)cc1O [ZL006, 4-N-(2-hydroxy-3,5-dichlorobenzyl) aminosalicylic acid]
neuroprotective effect against glutamate-induced neuronal injury [3]: significant neuroprotective effect
NMDAR-mediated pathological NO release [4]: reduce
learning and memory impairment, behavioral abnormalities and other side effects [5]: does not cause
animal neurological deficits [6]: improve
infarct volume [6]: reduce

NC(CCCP(=O)(O)O)C(=O)O (stereo not shown) [AP-5]
CFA-induced muscle hyperalgesia [7]: reduce

CC1(C)C2CCC1(C)C(OC(=O)c1ccc(NCc3cc(Cl)cc(Cl)c3O)cc1O)C2 (stereo not shown) [ZL006-05, bornyl-2-hydroxy-4-(2-hydroxy-3,5-dichlorobenzyl) aminobenzoate]
neurological defect symptoms [8]: significantly alleviated
cerebral infarct area ([8]; MCAO 120 min, dose-dependent): significantly reduced
area under the curve of threshold relative to control group ([9]; 50 mg/kg, within 10 h after administration, FIG. 4C): approximately 4 times
efficacy duration of a single dose [9, 15]: about 6 hours
time after administration at which significant efficacy was shown [9, 15]: 1 h
threshold of paw withdrawal response to mechanical stimulus ([9]; gavage 50 mg/kg, CFA, FIG. 4B): significantly increased
AUC of latency-time curve relative to control group ([10]; 60 mg/kg group, 10 h after administration, FIG. 3B): about two
latency relative to control group [10, 16]: about 2.5 times
latency of paw withdrawal response to thermal pain ([10]; gavage 10, 30, 60 and 90 mg/kg, day 7 after SNL, dose dependent, FIG. 3A): significantly increased
dose that showed significant efficacy ([10]; gavage, SNL, thermal pain): 10 mg/kg
efficacy duration of a single dose ([10]; gavage, SNL, thermal pain): about 8 hours
time to show efficacy after administration ([10]; gavage, SNL, thermal pain): less than 0.5 h
AUC of threshold-time curve relative to control group ([11]; 90 mg/kg group, 12 h after administration, FIG. 2B): about six
pain threshold relative to control group [11, 16]: about 20 times
threshold of paw withdrawal response to mechanical stimulus ([11]; gavage 10, 30, 60 and 90 mg/kg, day 7 after SNL, dose dependent, FIG. 2A): significantly increased
dose that showed significant efficacy [11, 17]: 10 mg/kg
efficacy duration of a single dose [11, 17]: about 8 hours
peak time of efficacy after administration [11, 17]: 2 h
time to show efficacy after administration [11, 17]: less than 0.5 h
area under the curve relative to control group ([12]; 50 mg/kg, within 10 h after administration, FIG. 5C): approximately 2 times
duration of significant analgesic effect of a single dose ([12]; gavage 50 mg/kg, CFA, thermal): about 10 hours
time after administration at which significant efficacy was shown ([12]; gavage 50 mg/kg, CFA, thermal): 1 h
latencies of paw withdraw response to thermal pain ([12]; gavage 50 mg/kg, CFA, FIG. 5B): significantly prolonged
Inhibition of LDH release (%) [13]: 62.4%
glutamate-induced coupling of nNOS and PSD-95 ([14]; 10 μM, 50 μM glutamate and 30 μM glycine 30 minutes): significantly inhibited
nNOS-PSD-95 coupling in normal cultured neurons ([14]; normal cultured neurons, no glutamate): didn't affect

— patent US9481636B2, “N-benzylaniline derivative and uses thereof” (Nanjing Medical University, priority 2011, dated 2016)
